Reference: ChEMBL document CHEMBL3763143, “Novel morpholine scaffolds as selective dopamine (DA) D3 receptor antagonists” (Bioorg Med Chem Lett, 2016)

Tests used:
D(3) dopamine receptor = D(3) dopamine receptor (Rattus norvegicus, UniProt P19020)
Description: Displacement of [125I]-7-OH-PIPAT from rat brain dopamine D3 receptor after 45 mins by microplate scintillation counting analysis

[1] = target: Voltage-gated inwardly rectifying potassium channel KCNH2 (Homo sapiens, UniProt Q12809); assay: Displacement of [3H]-dofetilide from human ERG potassium channel by scintillation proximity assay
[2] = target: T1, Muscarinic acetylcholine receptor M1 (Homo sapiens, UniProt P11229); assay: Antagonist activity at muscarinic M1 receptor (unknown origin)
T1 sequence (P11229 whole entry): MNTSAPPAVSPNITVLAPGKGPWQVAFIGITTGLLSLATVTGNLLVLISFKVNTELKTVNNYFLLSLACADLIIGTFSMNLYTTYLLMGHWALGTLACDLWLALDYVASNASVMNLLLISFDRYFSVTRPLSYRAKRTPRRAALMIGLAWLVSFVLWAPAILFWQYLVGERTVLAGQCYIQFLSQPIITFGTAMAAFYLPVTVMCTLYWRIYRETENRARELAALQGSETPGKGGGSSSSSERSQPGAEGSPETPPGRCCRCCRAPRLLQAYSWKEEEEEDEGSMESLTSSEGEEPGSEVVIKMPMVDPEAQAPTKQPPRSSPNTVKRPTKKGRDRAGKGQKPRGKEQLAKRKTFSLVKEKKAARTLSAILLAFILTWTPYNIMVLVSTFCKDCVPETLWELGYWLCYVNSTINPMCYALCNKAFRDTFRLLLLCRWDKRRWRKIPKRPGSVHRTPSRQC

Cytochrome P450 1A2 = target: T2, Cytochrome P450 1A2 (Homo sapiens, UniProt P05177); assay: Inhibition of human CYP1A2 expressed in bactosome; format: ADME
T2 sequence (P05177 whole entry): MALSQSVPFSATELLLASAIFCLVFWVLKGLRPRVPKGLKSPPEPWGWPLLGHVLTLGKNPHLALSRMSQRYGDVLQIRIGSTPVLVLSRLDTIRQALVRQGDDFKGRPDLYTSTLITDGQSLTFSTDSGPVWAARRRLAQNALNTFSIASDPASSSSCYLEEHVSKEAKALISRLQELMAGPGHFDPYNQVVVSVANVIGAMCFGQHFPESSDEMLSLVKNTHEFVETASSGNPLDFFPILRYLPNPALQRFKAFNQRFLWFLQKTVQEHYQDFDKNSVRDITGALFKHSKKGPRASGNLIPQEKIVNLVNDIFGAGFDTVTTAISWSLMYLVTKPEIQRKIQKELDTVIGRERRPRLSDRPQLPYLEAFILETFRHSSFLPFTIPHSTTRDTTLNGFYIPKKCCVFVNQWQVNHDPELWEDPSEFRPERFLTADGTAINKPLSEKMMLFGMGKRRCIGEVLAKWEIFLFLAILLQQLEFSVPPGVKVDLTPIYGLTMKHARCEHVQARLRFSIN

Cytochrome P450 2C9 = Cytochrome P450 2C9 (Homo sapiens, UniProt P11712); assay: Inhibition of human CYP2C9 expressed in bactosome; format: ADME
Sequence of Cytochrome P450 2C9 (P11712 whole entry): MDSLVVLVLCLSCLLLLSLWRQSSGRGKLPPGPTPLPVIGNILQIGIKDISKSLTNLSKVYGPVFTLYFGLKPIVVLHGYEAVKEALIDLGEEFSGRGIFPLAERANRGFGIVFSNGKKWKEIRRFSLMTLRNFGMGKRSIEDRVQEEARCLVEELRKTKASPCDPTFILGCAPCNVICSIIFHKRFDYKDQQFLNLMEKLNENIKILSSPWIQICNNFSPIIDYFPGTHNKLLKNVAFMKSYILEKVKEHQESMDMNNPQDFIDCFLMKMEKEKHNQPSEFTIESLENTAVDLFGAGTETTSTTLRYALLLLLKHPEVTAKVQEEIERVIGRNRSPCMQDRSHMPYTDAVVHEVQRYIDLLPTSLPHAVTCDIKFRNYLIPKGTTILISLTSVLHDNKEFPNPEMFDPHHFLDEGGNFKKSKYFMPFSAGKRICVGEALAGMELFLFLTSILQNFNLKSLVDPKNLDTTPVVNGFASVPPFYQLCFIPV

Cytochrome P450 2C19 = Cytochrome P450 2C19 (Homo sapiens, UniProt P33261); assay: Inhibition of human CYP2C19 expressed in bactosome; format: ADME
Sequence of Cytochrome P450 2C19 (P33261 whole entry): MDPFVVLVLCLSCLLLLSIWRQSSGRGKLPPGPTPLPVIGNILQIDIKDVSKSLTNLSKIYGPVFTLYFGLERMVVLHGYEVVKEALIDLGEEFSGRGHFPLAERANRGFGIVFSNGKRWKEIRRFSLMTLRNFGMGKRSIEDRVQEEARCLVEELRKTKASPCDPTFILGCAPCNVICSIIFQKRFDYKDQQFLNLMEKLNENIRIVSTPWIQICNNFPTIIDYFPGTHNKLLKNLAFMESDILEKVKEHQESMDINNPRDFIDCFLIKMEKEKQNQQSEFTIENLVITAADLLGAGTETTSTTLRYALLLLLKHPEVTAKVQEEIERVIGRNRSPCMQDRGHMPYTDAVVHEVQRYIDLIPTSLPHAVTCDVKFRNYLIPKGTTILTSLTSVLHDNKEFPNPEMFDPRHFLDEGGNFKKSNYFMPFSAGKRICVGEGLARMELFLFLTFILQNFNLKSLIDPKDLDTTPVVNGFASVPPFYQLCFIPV

Cytochrome P450 2D6 = Cytochrome P450 2D6 (Homo sapiens, UniProt P10635); assay: Inhibition of human CYP2D6 expressed in bactosome; format: ADME
Sequence of Cytochrome P450 2D6 (P10635 whole entry): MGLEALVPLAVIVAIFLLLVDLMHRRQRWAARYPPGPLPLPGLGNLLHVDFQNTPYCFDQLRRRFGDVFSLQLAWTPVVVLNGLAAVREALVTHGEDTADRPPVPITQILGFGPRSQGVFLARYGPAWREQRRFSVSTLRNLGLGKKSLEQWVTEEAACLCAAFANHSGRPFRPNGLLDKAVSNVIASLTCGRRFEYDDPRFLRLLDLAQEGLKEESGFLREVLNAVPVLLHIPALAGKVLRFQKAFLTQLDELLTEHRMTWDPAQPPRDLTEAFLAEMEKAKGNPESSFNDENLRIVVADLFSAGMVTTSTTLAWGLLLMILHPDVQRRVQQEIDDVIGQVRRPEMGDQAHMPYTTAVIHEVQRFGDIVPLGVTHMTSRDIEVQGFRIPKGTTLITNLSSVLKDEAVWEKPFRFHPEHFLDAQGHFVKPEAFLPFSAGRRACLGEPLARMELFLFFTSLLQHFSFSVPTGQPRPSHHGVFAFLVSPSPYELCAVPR

Cytochrome P450 3A4 [3] = target: T3, Cytochrome P450 3A4 (Homo sapiens, UniProt P08684); assay: Inhibition of human CYP3A4 expressed in bactosome using DBOMF as substrate; format: ADME
T3 sequence (P08684 whole entry): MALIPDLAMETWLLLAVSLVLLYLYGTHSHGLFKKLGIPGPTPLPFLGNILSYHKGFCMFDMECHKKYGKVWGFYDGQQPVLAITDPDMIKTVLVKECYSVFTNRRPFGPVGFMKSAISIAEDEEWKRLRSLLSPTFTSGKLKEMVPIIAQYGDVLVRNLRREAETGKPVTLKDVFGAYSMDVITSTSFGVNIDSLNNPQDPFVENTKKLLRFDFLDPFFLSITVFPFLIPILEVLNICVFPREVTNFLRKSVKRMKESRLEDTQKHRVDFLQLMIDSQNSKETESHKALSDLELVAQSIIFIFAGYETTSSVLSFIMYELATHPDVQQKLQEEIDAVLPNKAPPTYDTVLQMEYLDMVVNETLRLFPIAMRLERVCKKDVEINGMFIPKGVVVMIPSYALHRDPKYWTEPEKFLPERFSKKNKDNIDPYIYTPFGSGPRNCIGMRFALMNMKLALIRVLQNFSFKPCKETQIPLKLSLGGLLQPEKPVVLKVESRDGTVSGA

Cytochrome P450 3A4 [4] = target: T3, Cytochrome P450 3A4; assay: Inhibition of human CYP3A4 expressed in bactosome using 7BQ as substrate; format: ADME
[5] = Intrinsic clearance in human liver microsomes assessed per mg of protein; format: ADME; conditions: read-out: CLH
[6] = Intrinsic clearance in rat liver microsomes assessed per mg of protein; format: ADME; conditions: read-out: CLH
[7] = Fraction absorbed in portal vein-cannulated rat; format: ADME, organism-based; conditions: in vivo
[8] = Volume of distribution at steady state in portal vein-cannulated rat; format: ADME, organism-based; conditions: in vivo, read-out: Vdss
[9] = Blood clearance in portal vein-cannulated rat; format: ADME, organism-based; conditions: whole blood
[10] = Half life in portal vein-cannulated rat; format: ADME, organism-based; conditions: in vivo
[11] = Hepatic extraction ratio in portal vein-cannulated rat; format: ADME, organism-based; conditions: in vivo, read-out: ERH
[12] = Bioavailability in portal vein-cannulated rat; format: ADME, organism-based; conditions: in vivo
[13] = Fraction unbound in portal vein-cannulated rat blood; format: ADME, tissue-based
[14] = Fraction unbound in portal vein-cannulated rat brain; format: ADME, tissue-based

Sequence of Voltage-gated inwardly rectifying potassium channel KCNH2 (Q12809 whole entry): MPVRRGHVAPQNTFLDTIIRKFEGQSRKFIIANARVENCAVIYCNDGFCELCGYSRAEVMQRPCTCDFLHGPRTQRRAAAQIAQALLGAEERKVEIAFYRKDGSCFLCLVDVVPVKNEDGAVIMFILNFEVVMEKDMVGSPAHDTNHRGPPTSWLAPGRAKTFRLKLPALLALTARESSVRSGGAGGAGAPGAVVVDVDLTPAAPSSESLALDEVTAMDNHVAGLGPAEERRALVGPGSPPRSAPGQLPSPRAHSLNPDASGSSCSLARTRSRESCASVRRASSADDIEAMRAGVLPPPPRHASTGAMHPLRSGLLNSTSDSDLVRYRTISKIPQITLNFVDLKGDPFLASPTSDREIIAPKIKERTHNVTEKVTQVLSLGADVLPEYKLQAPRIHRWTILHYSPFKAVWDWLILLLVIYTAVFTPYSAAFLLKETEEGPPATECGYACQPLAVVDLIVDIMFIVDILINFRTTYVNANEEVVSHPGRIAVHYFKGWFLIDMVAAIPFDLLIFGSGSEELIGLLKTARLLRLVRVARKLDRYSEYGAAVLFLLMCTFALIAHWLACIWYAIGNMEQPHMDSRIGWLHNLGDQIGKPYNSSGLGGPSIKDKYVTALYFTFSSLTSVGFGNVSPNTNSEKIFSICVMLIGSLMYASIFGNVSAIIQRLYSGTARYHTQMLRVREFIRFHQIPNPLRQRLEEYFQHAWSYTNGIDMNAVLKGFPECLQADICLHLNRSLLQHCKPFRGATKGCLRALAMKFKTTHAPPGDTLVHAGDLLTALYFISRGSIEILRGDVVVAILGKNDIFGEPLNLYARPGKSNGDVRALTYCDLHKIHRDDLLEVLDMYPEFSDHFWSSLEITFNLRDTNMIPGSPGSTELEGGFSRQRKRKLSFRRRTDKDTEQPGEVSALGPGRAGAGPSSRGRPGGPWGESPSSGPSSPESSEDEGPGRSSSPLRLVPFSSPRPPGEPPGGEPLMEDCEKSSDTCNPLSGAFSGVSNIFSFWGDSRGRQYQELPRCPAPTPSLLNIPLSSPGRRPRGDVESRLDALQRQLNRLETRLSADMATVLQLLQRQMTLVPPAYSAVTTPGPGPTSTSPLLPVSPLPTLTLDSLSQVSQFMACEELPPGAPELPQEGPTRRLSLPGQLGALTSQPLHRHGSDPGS
Sequence of D(3) dopamine receptor (P19020 whole entry): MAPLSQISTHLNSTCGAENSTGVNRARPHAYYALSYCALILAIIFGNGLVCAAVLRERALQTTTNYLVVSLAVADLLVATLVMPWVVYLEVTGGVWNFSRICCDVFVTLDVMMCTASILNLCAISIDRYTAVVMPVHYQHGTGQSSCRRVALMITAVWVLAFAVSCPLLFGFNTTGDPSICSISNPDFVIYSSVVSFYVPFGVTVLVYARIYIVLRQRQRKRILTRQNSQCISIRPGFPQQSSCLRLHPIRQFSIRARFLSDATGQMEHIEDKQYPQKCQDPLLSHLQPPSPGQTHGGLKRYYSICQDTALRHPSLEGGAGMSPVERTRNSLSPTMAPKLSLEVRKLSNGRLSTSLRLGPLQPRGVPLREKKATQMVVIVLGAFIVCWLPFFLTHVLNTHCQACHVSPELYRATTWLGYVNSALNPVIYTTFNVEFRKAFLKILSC

## Cc1ncoc1-c1nnc(SCCCN2CCOC(c3ccc(F)cc3)C2)n1C (stereo in doubt; 7)
D(3) dopamine receptor
  Ki: 0.251 µM
[1]
  Ki: 3.16 µM
[2]
  Ki: 3.16 µM
Cytochrome P450 1A2
  IC50: > 30 µM
Cytochrome P450 2C9
  IC50: > 30 µM
Cytochrome P450 2C19
  IC50: > 30 µM
Cytochrome P450 2D6
  IC50: > 30 µM
Cytochrome P450 3A4 [3]
  IC50: > 30 µM
Cytochrome P450 3A4 [4]
  IC50: > 30 µM
[5]
  microsomal CLint: 21.7 µL/min/mg
[6]
  microsomal CLint: < 9 µL/min/mg
[7]
  Fa: 100%
[8]
  Vd: 2.61 L/kg
[9]
  clearance: 40 mL/min/kg
[10]
  half-life: 48 min
[11]
  hepatic extraction ratio: 0.1
[12]
  bioavailability: 100%
[13]
  fraction unbound: 0.17
[14]
  fraction unbound: > 0.5
